Reference: patent US20250276964A1 (Novartis AG, priority 2021, published 2025)

How the values were obtained:
WIZ = biological target: T1, WIZ (Homo sapiens, UniProt O95785+Q96SW2); assay: Quantification of WIZ protein levels in HiBit tag fusion protein assay (WIZ HiBit assay in 293T cells); type: cell-based; conditions: for Dmax at 25 µM / remaining activity at 25 µM: HEK-293T; for Dmax at 25 µM: read-out: % degradation of WIZ (100-Amax); for remaining activity at 25 µM: read-out: WIZ Amax; for DC50: WIZ HiBit assay in 293T cells, 10-point, 5-fold dilution, highest concentration 25 μM, about 18 hours, read-out: WIZ AC50
T1 construct: expressed in transfected cells
In short: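 293T cells stably carrying single-copy HiBit-WIZ (HSVTK promoter) treated ~18 h at 37 °C with 10-point, 5-fold dilutions, top 25 μM. Lytic HiBit luminescence read; Amax is DMSO-normalised, curve-fitted % WIZ-HiBit remaining at 25 uM.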

Fetal Hemoglobin (HbF) = assay: Small molecule HbF induction assay (erythroid differentiated mPB CD34+ cells, flow cytometry); type: cell-based, human; conditions: for EC50: Homo sapiens, mPB CD34+ cells expanded 6 days, erythroid differentiated with compound 7 days, 7-point, 1:3 dilution from 30 uM; for HbF Amax: highest percentage of cells staining positive for HbF (% HbF+ cells) in the fitted dose-response curve, DMSO baseline approximately 30-40%
Method: Cryopreserved primary human CD34^+ hematopoietic stem and progenitor cells were obtained from AllCells, LLC. The CD34^+ cells were isolated from the peripheral blood of healthy donors after mobilization by administration of granulocyte colony-stimulating factor. Cells were differentiated ex vivo toward the erythroid lineage using a 2-phase culture method. In the first phase, cells were cultured in StemSpan™ Serum-Free Expansion Media (SFEM) ([…] Technologies Inc.) supplemented with rhSCF (50 ng/mL, Peprotech®, Inc.), rhIL-6 (50 ng/mL, Peprotech®, Inc.), rhIL-3 (50 ng/mL, Peprotech®, Inc.), and rhFlt3L (50 ng/mL, Peprotech®, Inc.), and 1× antibiotic-antimycotic (Life Technologies, Thermo Fisher Scientific) for 6 days at 37° C. with 5% CO2. During the second phase, cells were cultured in erythroid differentiation media at 5,000 cells/mL in the presence of compound for 7 days at 37° C. with 5% CO2. Erythroid Differentiation Media is comprised of IMDM (Life Technologies) supplemented with insulin (10 μg/mL, Sigma Aldrich), heparin (2 U/mL Sigma Aldrich), holo-transferrin (330 μg/mL, Sigma Aldrich), human serum AB (5%, Sigma Aldrich), hydrocortisone (1 μM, […] Technologies), rhSCF (100 ng/mL, Peprotech®, Inc.), rhIL-3 (5 ng/mL, Peprotech®, Inc.), rhEPO (3 U/mL, Peprotech®, Inc.), and 1× antibiotic-antimycotic. All compounds were dissolved and diluted into dimethylsulfoxide (DMSO) and were added to culture media for a final concentration of 0.3% DMSO for testing in a 7-point, 1:3 dilution series starting at 30 uM.
For viability analysis, samples were washed and resuspended in phosphate-buffered saline (PBS) and stained with LIVE/DEAD™ Fixable Violet Dead Cell Stain Kit (Life Technologies, L34963) for 20 minutes. Cells were then washed again with PBS and resuspended in PBS supplemented with 2% fetal bovine serum (FBS), and 2 mM EDTA to prepare for cell surface marker analysis. Cells were labeled with allophycocyanin-conjugated CD235a (1:100, BD Biosciences, 551336) and Brilliant Violet-conjugated CD71 (1:100, BD Biosciences, 563767) antibodies for 20 minutes. For analysis of cytoplasmic Fetal Hemoglobin (HbF), cells were fixed and permeabilized using the Fixation (BioLegend®, 420801) and Permeabilization Wash (BioLegend®, 421002) Buffers according to the manufacturer's protocol. During the permeabilization step, cells were stained with phycoerythrin-conjugated or FITC-conjugated HbF-specific antibody (1:10-1:25, Invitrogen™, MHFH04-4) for 30 minutes. Stained cells were washed with phosphate-buffered saline before analysis on the FACSCanto™ I1 flow cytometer or LSRFortessa™ (BD Biosciences). […]
mPB CD34+ cells were expanded for 6 days, then erythroid differentiated in the presence of compound for 7 days. Cells were fixed, stained and analyzed by flow cytometry. […]

[1] = DMSO-normalized, curve-fitted percentage of WIZ-HiBit remaining at 25 uM

T1 sequence (O95785 whole entry, the tested form may be a part): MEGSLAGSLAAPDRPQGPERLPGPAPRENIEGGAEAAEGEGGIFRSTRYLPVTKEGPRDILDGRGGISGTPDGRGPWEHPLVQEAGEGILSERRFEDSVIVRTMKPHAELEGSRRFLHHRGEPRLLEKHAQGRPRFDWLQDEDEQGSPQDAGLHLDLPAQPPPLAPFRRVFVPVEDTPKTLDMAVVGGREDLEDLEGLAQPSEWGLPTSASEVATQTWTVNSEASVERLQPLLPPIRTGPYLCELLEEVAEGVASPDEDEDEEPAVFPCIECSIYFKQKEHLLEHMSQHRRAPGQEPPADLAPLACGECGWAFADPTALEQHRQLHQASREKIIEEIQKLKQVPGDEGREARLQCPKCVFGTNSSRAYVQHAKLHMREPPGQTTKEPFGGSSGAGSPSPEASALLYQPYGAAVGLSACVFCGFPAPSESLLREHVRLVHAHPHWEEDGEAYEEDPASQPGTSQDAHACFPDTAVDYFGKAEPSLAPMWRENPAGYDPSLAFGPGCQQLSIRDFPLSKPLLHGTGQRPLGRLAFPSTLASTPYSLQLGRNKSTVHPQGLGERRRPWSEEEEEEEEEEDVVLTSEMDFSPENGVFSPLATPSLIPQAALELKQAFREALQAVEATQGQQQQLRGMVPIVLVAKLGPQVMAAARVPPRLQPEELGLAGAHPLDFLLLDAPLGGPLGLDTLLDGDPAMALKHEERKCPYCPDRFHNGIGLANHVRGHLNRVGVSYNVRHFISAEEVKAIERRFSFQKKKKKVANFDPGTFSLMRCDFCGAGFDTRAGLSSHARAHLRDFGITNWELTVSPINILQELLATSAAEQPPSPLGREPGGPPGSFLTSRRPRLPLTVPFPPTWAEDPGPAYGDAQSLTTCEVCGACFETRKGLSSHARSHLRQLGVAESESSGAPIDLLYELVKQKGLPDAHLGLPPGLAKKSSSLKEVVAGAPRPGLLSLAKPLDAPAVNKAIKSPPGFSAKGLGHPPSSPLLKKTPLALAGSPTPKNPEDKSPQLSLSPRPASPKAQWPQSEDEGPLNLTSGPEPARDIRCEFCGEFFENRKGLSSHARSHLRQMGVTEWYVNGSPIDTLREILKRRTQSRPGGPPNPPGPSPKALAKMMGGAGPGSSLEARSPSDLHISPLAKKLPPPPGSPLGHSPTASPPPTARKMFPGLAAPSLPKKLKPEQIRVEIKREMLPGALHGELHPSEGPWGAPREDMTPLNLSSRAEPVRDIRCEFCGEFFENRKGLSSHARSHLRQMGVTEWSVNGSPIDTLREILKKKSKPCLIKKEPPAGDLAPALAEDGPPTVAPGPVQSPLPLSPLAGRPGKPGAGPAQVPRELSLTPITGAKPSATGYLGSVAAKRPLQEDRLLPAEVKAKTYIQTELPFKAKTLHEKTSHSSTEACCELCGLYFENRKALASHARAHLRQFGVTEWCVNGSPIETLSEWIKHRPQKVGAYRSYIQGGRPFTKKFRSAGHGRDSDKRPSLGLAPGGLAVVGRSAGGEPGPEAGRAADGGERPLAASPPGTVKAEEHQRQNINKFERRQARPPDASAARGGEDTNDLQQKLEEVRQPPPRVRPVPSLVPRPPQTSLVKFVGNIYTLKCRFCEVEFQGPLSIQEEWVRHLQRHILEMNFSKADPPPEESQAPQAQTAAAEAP
T1 sequence (Q96SW2 whole entry, the tested form may be a part): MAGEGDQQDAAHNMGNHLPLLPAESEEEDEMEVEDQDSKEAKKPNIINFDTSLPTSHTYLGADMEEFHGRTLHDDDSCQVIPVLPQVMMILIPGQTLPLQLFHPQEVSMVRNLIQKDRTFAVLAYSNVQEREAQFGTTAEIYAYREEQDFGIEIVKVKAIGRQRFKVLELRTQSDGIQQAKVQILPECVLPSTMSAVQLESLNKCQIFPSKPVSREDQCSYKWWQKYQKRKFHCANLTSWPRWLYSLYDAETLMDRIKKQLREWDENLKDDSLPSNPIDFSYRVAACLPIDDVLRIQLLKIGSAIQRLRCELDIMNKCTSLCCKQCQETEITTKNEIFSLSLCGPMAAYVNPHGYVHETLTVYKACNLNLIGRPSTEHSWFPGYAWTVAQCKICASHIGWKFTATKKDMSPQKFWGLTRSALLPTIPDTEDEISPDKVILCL
T1 sequence (Q16531 whole entry partner, the tested form may be a part): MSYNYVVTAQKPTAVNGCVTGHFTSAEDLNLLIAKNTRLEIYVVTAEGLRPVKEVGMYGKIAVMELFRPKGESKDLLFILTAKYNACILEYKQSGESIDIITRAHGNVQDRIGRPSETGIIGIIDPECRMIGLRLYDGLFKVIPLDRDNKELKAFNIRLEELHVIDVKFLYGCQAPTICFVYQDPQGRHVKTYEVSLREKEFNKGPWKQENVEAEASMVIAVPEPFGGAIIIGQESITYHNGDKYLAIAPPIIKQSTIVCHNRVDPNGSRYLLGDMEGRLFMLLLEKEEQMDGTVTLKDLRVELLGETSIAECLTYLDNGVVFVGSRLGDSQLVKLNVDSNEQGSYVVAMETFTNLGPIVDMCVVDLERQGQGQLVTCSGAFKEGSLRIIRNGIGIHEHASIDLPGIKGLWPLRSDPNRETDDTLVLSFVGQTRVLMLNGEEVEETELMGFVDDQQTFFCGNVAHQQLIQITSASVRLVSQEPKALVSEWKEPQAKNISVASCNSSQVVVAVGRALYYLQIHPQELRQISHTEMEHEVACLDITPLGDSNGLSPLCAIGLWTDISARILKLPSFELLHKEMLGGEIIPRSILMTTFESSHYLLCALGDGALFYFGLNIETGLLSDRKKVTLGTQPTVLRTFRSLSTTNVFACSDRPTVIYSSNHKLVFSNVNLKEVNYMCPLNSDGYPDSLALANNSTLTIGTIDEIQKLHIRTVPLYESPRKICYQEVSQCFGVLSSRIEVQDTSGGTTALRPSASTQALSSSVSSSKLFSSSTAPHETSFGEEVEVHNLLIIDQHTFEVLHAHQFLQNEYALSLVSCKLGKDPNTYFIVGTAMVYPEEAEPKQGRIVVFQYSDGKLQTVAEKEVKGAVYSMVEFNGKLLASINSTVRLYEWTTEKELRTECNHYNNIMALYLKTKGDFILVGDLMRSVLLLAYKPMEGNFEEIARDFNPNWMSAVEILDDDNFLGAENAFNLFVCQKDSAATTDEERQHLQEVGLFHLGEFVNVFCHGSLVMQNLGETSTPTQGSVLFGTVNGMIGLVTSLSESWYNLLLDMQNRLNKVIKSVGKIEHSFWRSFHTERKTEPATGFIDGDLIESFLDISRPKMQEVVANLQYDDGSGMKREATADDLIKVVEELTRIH

SMILES | Dmax at 25 µM (WIZ; 100 minus Amax at 25 uM) [%] | remaining activity at 25 µM (WIZ; [1]) [%] | DC50 (WIZ) [nM] | EC50 (Fetal Hemoglobin (HbF)) [nM] | HbF Amax (Fetal Hemoglobin (HbF)) [%] | % degradation of WIZ (100-Amax) (WIZ; 100 minus Amax at 25 uM) [%] | WIZ Amax (WIZ; [1]) [%]
C[C@@H]1CN(C)CCN1Cc1ccc2onc(N3CCC(=O)NC3=O)c2c1 [Example 65, (R)-1-(5-((2,4-dimethylpiperazin-1-yl)methyl)benzo[d]isoxazol-3-yl)dihydropyrimidine-2,4(1H,3H)-dione] | 84 | 16 | 89 | 172 | 76 |  | 
C[C@H]1CN(Cc2ccc3onc(N4CCC(=O)NC4=O)c3c2)CCN1C [Example 29, (S)-1-(5-((3,4-dimethylpiperazin-1-yl)methyl)benzo[d]isoxazol-3-yl)dihydropyrimidine-2,4(1H,3H)-dione] | 89 | 11 | 6.4 | 45 | 80 |  | 
CC(C)(C)OC(=O)N1CCC(Cc2ccc3onc(N4CCC(=O)NC4=O)c3c2)C1 (stereo not shown) [Example 47, tert-butyl 3-((3-(2,4-dioxotetrahydropyrimidin-1 (2H)-yl)benzo[d]isoxazol-5-yl)methyl)pyrrolidine-1-carboxylate] | 85 | 15 | 397 |  |  |  | 
COC[C@H]1CN(Cc2ccc3onc(N4CCC(=O)NC4=O)c3c2)CCN1CC(C)C [Example 114, (R)-1-(5-((4-isobutyl-3-(methoxymethyl)piperazin-1-yl)methyl)benzo[d]isoxazol-3-yl)dihydropyrimidine-2,4(1H,3H)-dione] | 85 | 15 | 115 |  |  |  | 
CC(C)CN1CCN(Cc2ccc3onc(N4CCC(=O)NC4=O)c3c2)CC1=O [Example 113, 1-(5-((4-isobutyl-3-oxopiperazin-1-yl)methyl)benzo[d]isoxazol-3-yl)dihydropyrimidine-2,4(1H,3H)-dione] | 66 | 34 | 256 |  |  |  | 
O=C1CCN(c2noc3ccc(CN4CCN(CC5CCCCC5)CC4)cc23)C(=O)N1 [Example 21, 1-(5-((4-(cyclohexylmethyl)piperazin-1-yl)methyl)benzo[d]isoxazol-3-yl)dihydropyrimidine-2,4(1H,3H)-dione] | 90 | 10 | 19 |  |  |  | 
CN1CCN(Cc2ccc3onc(N4CCC(=O)NC4=O)c3c2)CC1 [Example 22, 1-(5-((4-methylpiperazin-1-yl)methyl)benzo[d]isoxazol-3-yl)dihydropyrimidine-2,4(1H,3H)-dione] | 91 | 9 | 10 |  |  |  | 
C[C@H]1CN(S(C)(=O)=O)[C@@H](C)CN1Cc1ccc2onc(N3CCC(=O)NC3=O)c2c1 [Example 105, 1-(5-(((2S,5S)-2,5-dimethyl-4-(methylsulfonyl)piperazin-1-yl)methyl)benzo[d]isoxazol-3-yl)dihydropyrimidine-2,4(1H,3H)-dione] | 75 | 25 | 373 |  |  |  | 
CC(C)(C)OC(=O)N1C[C@H]2C[C@@H]1CN2Cc1ccc2onc(N3CCC(=O)NC3=O)c2c1 [Example 96, tert-butyl (1R,4R)-5-((3-(2,4-dioxotetrahydropyrimidin-1(2H)-yl)benzo[d]isoxazol-5-yl)methyl)-2,5-diazabicyclo[2.2.1]heptane-2-carboxylate] | 66 | 34 | 1090 |  |  |  | 
CC[C@@H]1CN(CC(C)C)CCN1Cc1ccc2onc(N3CCC(=O)NC3=O)c2c1 [Example 88, (R)-1-(5-((2-ethyl-4-isobutylpiperazin-1-yl)methyl)benzo[d]isoxazol-3-yl)dihydropyrimidine-2,4(1H,3H)-dione] | 85 | 15 | 8 |  |  |  | 
CCS(=O)(=O)N1CCN(Cc2ccc3onc(N4CCC(=O)NC4=O)c3c2)[C@H](C)C1 [Example 72, (R)-1-(5-((4-(ethylsulfonyl)-2-methylpiperazin-1-yl)methyl)benzo[d]isoxazol-3-yl)dihydropyrimidine-2,4(1H,3H)-dione] | 81 | 19 | 98 |  |  |  | 
O=C1CCN(c2noc3ccc(CC4C[C@H]5CC[C@@H](C4)N5)cc23)C(=O)N1 (stereo partly drawn) [Example 56, 1-(5-(((1R,5S)-8-azabicyclo[3.2.1]octan-3-yl)methyl)benzo[d]isoxazol-3-yl)dihydropyrimidine-2,4(1H,3H)-dione] |  |  | 251 |  |  | 45 | 55
CCN1CCC(Cc2ccc3onc(N4CCC(=O)NC4=O)c3c2)CC1 [Example 8, 1-(5-((1-ethylpiperidin-4-yl)methyl)benzo[d]isoxazol-3-yl)dihydropyrimidine-2,4(1H,3H)-dione] | 91 | 9 | 16 |  |  |  | 
CN1CCCC(Cc2ccc3onc(N4CCC(=O)NC4=O)c3c2)C1 (stereo not shown) [Example 45, 1-(5-((1-methylpiperidin-3-yl)methyl)benzo[d]isoxazol-3-yl)dihydropyrimidine-2,4(1H,3H)-dione] | 77 | 23 | 240 |  |  |  | 
